Measurements: publication PMC10096453, “One-Pot Synthesis and Evaluation of Antioxidative Stress and Anticancer Properties of an Active Chromone Derivative” (Molecules, 2023)
Like-named read-outs stand apart in the source and are kept apart here. Values belong to the compound of their own block, whether it stands above or below them.

How the values were obtained:
[1] = FRAP (ferric reducing antioxidant power) assay; type: biochemical; conditions: Trolox equivalent
Text: (§1) Three in vitro antioxidant assays (DPPH, FRAP, and ABTS) were utilized to evaluate the antioxidant property of the synthesized compounds. The DPPH (α, α-diphenyl-β-picrylhydrazyl) assay is the well-known approach to determine antioxidant activity using a stable free radical DPPH, measure the absorbance change, and calculate the absorbance change in the percentage of scavenging activity. […] For example, the ferric-tripyridyltriazine (Fe^3+-TPTZ, colorless) complex is reduced to ferrous tripyridyltriazine (Fe^2+-TPTZ) at low pH and introduces a blue color with maximum absorption at 593 nm. The change in absorbance is related to antioxidant activity. However, a significant limitation of these in vitro tests is the non-physiological measurement conditions (no enzymatic condition and no transition metal ion chelating activity); therefore, the results obtained may not reflect the antioxidant activity of the source material under the biological conditions that exist in humans and animals. The ABTS assay involves a more drastic radical that is chemically produced. The use of ABTS for antioxidant activity determination of hydrophilic and lipophilic pure compounds has attracted interest due to its solubility in organic and aqueous media and stability in a wide pH range [31].
The FRAP assay is a method for assessing antioxidant power. Briefly, the FRAP reagent was prepared from acetate buffer pH 3.6, 10 mM TPTZ solution in 40 mM HCl and 20 mM FeCl3.6 H2O in relative proportions of 10:1:1, v/v, respectively. The FRAP reagent was freshly prepared daily. A solution of 5 μL of the sample (3–300 μM, approx.) was mixed with 180 μL of the FRAP reagent in a 96-well plate. The mixture was shaken in the dark for 10 min and incubated at 37 °C for 20 min, and the absorbance was determined at 593 nm. The solution without the sample was used as a blank. All determinations were made in triplicate. Trolox was used as a standard antioxidant and plot the calibration curve between absorbance and concentration. Quercetin was applied as the reference compound. The FRAP values were calculated by comparing the absorbance change in the test sample and represented in μM of Trolox equivalent per μM of sample.

[2] = MTT cytotoxicity assay, HEK293 cells; type: cell-based; conditions: human, HEK293 cells, 100 μM; for viability at 24 h, 100 µM: read-out: % Viability ± SD (at 100 μM) HEK293 24 h; for viability at 48 h, 100 µM: read-out: % Viability ± SD (at 100 μM) HEK293 48 h
Procedure: (§2) HEK293, HACAT, and HeLa cells were grown in modified Eagles’ minimum essential medium (EMEM, Gibco) with 10% fetal bovine serum (FBS, Gibco), 1% of 100 U/mL streptomycin and 100 U/mL penicillin (Gibco). Cells were seeded in culture flasks and maintained in an incubator at 37 °C in a humidified atmosphere with 5% CO2. After reaching 80–90% of confluence, cells were detached by incubation with 0.25% trypsin-0.2% EDTA (Gibco) for 5 min and plated for experiments.
(§3) This study examined cell cultures of HEK293, HACAT, and HeLa cells. The cytotoxicity of the test samples was carried out by the MTT (3-(4,5-dimethylthiazol-2-yl)-2,5-diphenyltetrazolium bromide) assay. The cells were seeded in 96-well microliter plates (2.0 × 10^4 cells/well). Stock solutions of the test compounds were prepared in DMSO. After 24 h, cells were treated with different concentrations of samples and diluted with media to obtain the final desired concentration. The treated cells were then incubated at 37 °C and 5% CO2 for 24 and 48 h. After incubation, the medium was replaced with 0.05% w/v of MTT solution in PBS and further incubated for 3 h. The solution was then discarded and DMSO was added to dissolve the formed formazan crystals. Each well’s absorbance (A) was measured at 570 nm using a microplate reader (FLUOstar Omega^TM, BMG Labtech, Ortenberg, Germany). All experiments were carried out in triplicate and repeated for at least three experiments.

HeLa cell = experiment: MTT anticancer activity assay, HeLa cells; type: cell-based
Procedure: as §2, §3

[3] = DPPH radical scavenging assay; type: biochemical; set-up: DPPH517nm % SA ± SD: dose or concentration left out as unconfirmed; conditions: for DPPH517nm % SA ± SD: mean of three measurements
Text: as §1
The DPPH method was followed and modified from a previous study. Trolox was used as a reference. The DPPH stock solution at a concentration of 0.625 mM was prepared in 50% ethanol and kept at 4 °C in the dark. On the day of the experiment, 0.208 mM fresh DPPH working solution was freshly prepared by further diluting with 50% ethanol. […] Each reaction was carried out in a 96-well plate, and 100 μL of test preparation and DPPH solution were added. The 96-well plate was then shaken well for 10 min and kept in the dark at room temperature for 20 min, and the absorbance was recorded at 515–517 nm. According to the method described, delocalization also results in a deep violet color and is quantified as a percentage of scavenging activity. % scavenging activity (SA) = 100 × (Asample − Ablank)/(Acontrol − Ablank)(1) where Acontrol and Asample are the absorbances of the test DPPH without and with a sample, respectively. Ablank is the absorbance of the solvent used. The EC50 values were calculated from the relationship curve of %SA versus sample concentration. The experiment was carried out at least in triplicate.

[4] = MTT cytotoxicity assay, HACAT cells; type: cell-based; conditions: human; for viability at 24 h, 100 µM: read-out: % Viability ± SD (at 100 μM) HACAT 24 h; for viability at 48 h, 100 µM: read-out: % Viability ± SD (at 100 μM) HACAT 48 h
Procedure: as §2, §3

HeLa cells = experiment: Cellular ROS assay (ROS deep red fluorescence kit); type: cell-based; conditions: pretreatment 50, 100, 150 μM for 24 h; 5 mM H2O2 30 min
Procedure: ROS is the main contributor to cell death. These reactive molecules are formed by several mechanisms and can be detected by various techniques. In order to investigate the level of cellular ROS after treatment with compounds, the accumulation of intracellular ROS in cells was quantified with a cellular ROS assay kit (ab186029, Abcam, Boston, USA) fluorescence assay. After pretreatment with 2f, 2j, and 3i at 50, 100, and 150 μM for 24 h, cell stress was induced with 5 mM hydrogen peroxide for 30 min. The cells in each well were collected and resuspended with a serum-free medium containing the ROS red probe. Subsequently, cells were incubated at 37 °C for 30 min in the dark, and fluorescence was read at Ex/Em = 650/675 nm.
In this study, Hela cells were seeded overnight at 20,000 cells/90 µL/well in a black wall/clear bottom 96-well plate. Cells included those untreated (control) and those pre-treated with compounds at various concentrations (50, 100, 150 μM) for 24 h. The ROS deep red assay solution (100 μL/well) was added and incubated at 5% CO2, 37 °C incubator for 30 min. The fluorescence signal was monitored at Ex/Em = 650/675 nm (cut off = 665 nm) with bottom read mode within 30 min (cellular ROS assay kit, ab186029, abcam).

[5] = ABTS radical cation scavenging assay; type: biochemical
Text: as §1
The ABTS assay was prepared by reaction of 5 mL of a 7 mM aqueous ABTS (2,2′-azino-bis (3-ethylbenzthiazoline-6-sulphonic acid) solution and 2.45 mM potassium persulfate solution (K2S2O8). After preparation and storage in the dark for 16 h, the radical cation solution was further diluted in ethanol to absorb about 0.7 at 734 nm. Trolox and test sample solutions were prepared in stock solution with DMSO and diluted with ethanol. A solution of 100 μL of the sample was mixed with 100 μL of the ABTS reagent in a 96-well plate. The mixture was shaken in a dark place for 10 min and incubated at 37 °C for 20 min, and the absorbance was determined at 734 nm. Absorbance determinations were recorded immediately and not more than 1 h after adding the reagent. The solution without the sample was used as a blank. All the determinations were made in triplicate. The sample’s scavenging percentage was calculated from this equation: scavenging percentage = (Absorbance control − Absorbance sample) × 100/Absorbance control. EC50 values were calculated from the relationship curve of %scavenging versus sample concentration.

HEK293 cells = experiment: MTT cytotoxicity assay, HEK293 cells; type: cell-based; conditions: 24 and 48 h treatment
Procedure: as §2, §3

[6] = Homo sapiens, 24 h, read-out: % Viability ± SD (at 100 μM) HeLa 24 h
[7] = Homo sapiens, 48 h, read-out: % Viability ± SD (at 100 μM) HeLa 48 h

EC50 ([3]; read-out: DPPH517nm EC50 ± SD): 59 ± 11.2 µM
EC50 ([5]; read-out: ABTS734nm EC50 ± SD): 13.9 ± 0.74 µM
SMILES: CC(=O)c1ccc(O)c(O)c1OC(=O)c1ccccc1 [3i, 6-Acetyl-2,3-dihydroxyphenyl benzoate]
FRAP593nm Value ± SD (TE) [1]: 3.16 ± 0.350 µM Trolox/1 µM of Synthesized Compounds
viability at 24 h, 100 µM [2]: 110 ± 1.2%
viability at 48 h, 100 µM [2]: 107 ± 4.18%
viability at 100 µM (HeLa cell; [6]): 99.9 ± 4.19%
viability at 100 µM (HeLa cell; [7]): 37.1 ± 1.96%
DPPH517nm % SA ± SD [3]: 90.55 ± 0.36%
viability at 24 h, 100 µM [4]: 104.8 ± 0.88%
viability at 48 h, 100 µM [4]: 84.9 ± 3.05%
Cellular ROS fluorescence intensity vs H2O2-treated cells (HeLa cells): decreased significantly
ABTS734nm % Scavenging at 500 µM [5]: 78.80 ± 1.14%

SMILES: O=C(c1ccc([N+](=O)[O-])cc1)c1c(-c2ccc([N+](=O)[O-])cc2)oc2cc(O)ccc2c1=O [2i, 7-hydroxy-3-(4-nitrobenzoyl)-2-(4-nitrophenyl)-4H-chromen-4-one]
FRAP593nm Value ± SD (TE) [1]: 0.08 ± 0.006 µM Trolox/1 µM of Synthesized Compounds
Toxicity in HEK293 cells (HEK293 cells): more toxic
viability at 24 h, 100 µM [2]: 65.1 ± 1.21%
viability at 48 h, 100 µM [2]: 41.2 ± 2.11%
IC50 (HeLa cell; 24 h): 34.9 ± 2.41 µM
Anticancer activity on cervical cancer cells (HeLa cell; HeLa, 24 h): contained anticancer activity
IC50 (HeLa cell; Homo sapiens, HeLa, 24 h): 34.9 µM
viability at 100 µM (HeLa cell; [6]): 38.7 ± 5.22%
viability at 100 µM (HeLa cell; [7]): 12.5 ± 1.45%
DPPH517nm % SA ± SD [3]: 13.75 ± 3.31%
viability at 24 h, 100 µM [4]: 59.8 ± 5.77%
viability at 48 h, 100 µM [4]: 27.5 ± 1.24%
melting point: 290 to 291 °C
ABTS734nm % Scavenging at 500 µM [5]: 8.52 ± 3.89%

melting point: 156 to 158 °C
SMILES: O=C(c1ccccc1)c1c(-c2ccccc2)oc2cccc(O)c2c1=O [2a, 3-Benzoyl-5-hydroxy-2-phenyl-4H-chromen-4-one]
FRAP593nm Value ± SD (TE) [1]: 0.02 ± 0.004 µM Trolox/1 µM of Synthesized Compounds
viability at 24 h, 100 µM [2]: 111 ± 6.37%
viability at 48 h, 100 µM [2]: 103 ± 6.05%
viability at 100 µM (HeLa cell; [6]): 91.9 ± 2.06%
viability at 100 µM (HeLa cell; [7]): 58.8 ± 2.02%
DPPH517nm % SA ± SD [3]: 2.23 ± 1.99%
viability at 24 h, 100 µM [4]: 63.8 ± 3.36%
viability at 48 h, 100 µM [4]: 88.5 ± 6.86%
ABTS734nm % Scavenging at 500 µM [5]: 10.93 ± 1.44%
